Reference: US6262230A, “Analogs of thymosin α1” (SciClone Pharmaceuticals Inc., priority 1994, dated 2001)
Values joined by “and” are separate entries in the source; they are usually repeats but may differ in a detail not shown here. Identical values can stand only once.

Test system: endotoxic mice (lipopolysaccharide endotoxin from E. coli at 60 mg/kg)
Test: Survival of endotoxic mice following lethal endotoxin dose
Format: in vivo, Swiss-Webster mice
Settings: endotoxin 60 mg/kg, 3 injections of 100 μg peptide at 5 minutes, 2 and 4 hours post endotoxin, alive at 0 hr: 10 (Tα1-N16-NH2 groups), 8 ([Glp]-Tα1, Tα1-Gly-NH2); for Number of Mice Alive Following Lethal Endotoxin Dose, 24 hr: endotoxin alone 4 of 10; for Number of Mice Alive Following Lethal Endotoxin Dose, 48 hr / Number of Mice Alive Following Lethal Endotoxin Dose, 72 hr / Number of Mice Alive Following Lethal Endotoxin Dose, 4 days / Number of Mice Alive Following Lethal Endotoxin Dose, 5 days: endotoxin alone 3 of 10
Experimental: Swiss-Webster mice were treated in five groups: endotoxic mice (mice injected with lipopolysaccharide endotoxin from E. coli at 60 mg/kg) which were otherwise untreated, and endotoxic mice treated with 3 injections of 100 μg Thymosin α1 -N16 Amide (Tα1 -N16 -NH2) treated in two groups, Pyroglutamyl-desacetyl Thymosin α1 ([glp]-Tα1), or Thymosin α1 -Gly Amide (Tα1 -gly-NH2) at 5 minutes, 2 and 4 hours post administration of the endotoxin.

Substance | Number of Mice Alive Following Lethal Endotoxin Dose, 24 hr | Number of Mice Alive Following Lethal Endotoxin Dose, 48 hr | Number of Mice Alive Following Lethal Endotoxin Dose, 72 hr | Number of Mice Alive Following Lethal Endotoxin Dose, 4 days | Number of Mice Alive Following Lethal Endotoxin Dose, 5 days
Ac-Ser-Asp-Ala-Ala-Val-Asp-Thr-Ser-Ser-Glu-Ile-Thr-Thr-Lys-Asp-Leu-Lys-Glu- Lys-Lys-Glu-Val-Val-Glu-Glu-Ala-Glu-Asn-Gly-NH2 (Ac-SDAAVDTSSEITTKDLKEKKEVVEEAENG-NH2) [Tα1 -Gly-NH2] | 8 | 8 | 8 | 8 | 8
Ac-Ser-Asp-Ala-Ala-Val-Asp-Thr-Ser-Ser-Glu-Ile-Thr-Thr-Lys-Asp-Leu-NH2 (Ac-SDAAVDTSSEITTKDL-NH2) [Tα1 -N16 --NH2] | 5 and 8 | 4 and 8 | 4 and 7 | 4 and 7 | 4 and 7
